Results as given in patent US9795609B2, “Pharmaceutical composition of 1-adamantylethyloxy-3-morpholino-2-propanol or pharmaceutically acceptable salts thereof for the treatment of cardiovascular disease” (priority 2012, dated 2017).

Tests used:
Format in all cases: in vivo
cats = test: Coronary blood flow and haemodynamics in cats after intravenous administration; details: 3, 5, and 10 mg/kg intravenously
Excerpt: The ability of the pharmaceutical composition for parenteral use comprising the active substance 1-adamantylethyloxy-3-morpholino-2-propanol or pharmaceutically acceptable salts thereof to improve myocardial perfusion indicates to appropriateness of its use in acute coronary syndrome.

[1] = tested on: rats with small-focus myocardial infarction; test: Experimental therapy of rats with small-focus myocardial infarction
Excerpt: The ability of the pharmaceutical composition for parenteral use comprising the active substance 1-adamantylethyloxy-3-morpholino-2-propanol or pharmaceutically acceptable salts thereof allows its use for treatment of cardiomyopathies of various geneses (alcoholic, infectious, toxic, and metabolic).
This allows to use it for treatment of various forms of coronary artery disease, including unstable angina pectoris, stable rest and exertional angina pectoris, angina pectoris of intact vessels, acute coronary syndrome (including early postinfarction angina pectoris), myocardial infarction (large-focus and small-focus, repeated and recurrent) post resuscitation disease (state after emergency procedures), treatment and prevention of ischemic myocardial postreperfusion injuries after thrombolysis, stenting, balloon angioplasty, coronary vessels atheroctomy, postinfarction myocardiosclerosis, cardiomyopathies of various genesis (alcoholic, infectious-toxic, and metabolic), heart rhythm disorders, diabetic angiopathies and complications thereof.

[2] = tested on: rats with acute adrenal cardiomyopathy; test: Acute adrenal cardiomyopathy simulation in rats, preventive single administration; details: single doses of 15, 30, 50 and 100 mg/kg one hour before simulation
Excerpt: This allows to use it for treatment of various forms of ischemic heart disease, including unstable angina pectoris, stable rest and exertional angina pectoris, angina pectoris of intact vessels, acute coronary syndrome (including early postinfarction angina pectoris), myocardial infarction (large-focus and small-focus, repeated and recurrent) post resuscitation disease (state after emergency procedures), and cardiomyopathies of various genesis (alcoholic, infectious-toxic, and metabolic).

[3] = 10 mg/kg once a day for 96 hours of ischemia

`OC(COCCC12CC3CC(CC(C3)C1)C2)CN1CCOCC1` (stereo not shown) [1-adamantylethyloxy-3-morpholino-2-propanol] was tested, and the coronary blood flow (cats) was “stimulates coronary blood flow”, the hypotension (cats) was “not accompanied by hypotension” and the “peripheral vasodilatation, venous inflow and cardiac output” value (cats) was “not associated with peripheral vasodilatation, decreased of venous inflow and cardiac output”. For the same compound, the “bcl-2 antiapoptotic protein expression” value ([1]; 10 mg/kg once a day for 96 hours) was “promoted the increasing of bcl-2 antiapoptotic protein expression”, the “RNA content and transcriptional activity of cardiomyocytes” value [1, 3] was “increasing of RNA content and transcriptional activity” and the “c-fos protein content in cardiomyocytes” value [1, 3] was “promoted the increasing of c-fos protein content in cardiomyocytes”. The cardiomyocytes nuclei density [1, 3] was “retention of cardiomyocytes nuclei density”, the “percentage of necrotic cardiomyocytes” value [1, 3] was “the percentage of necrotic cardiomyocytes is reduced” and the “manifestations of endothelial dysfunction and nitrosating stress” value ([1]; 3, 10, 20, 50 and 100 mg/kg once a day for 96 hours of ischemia) was “promoted to reduce manifestations of endothelial dysfunction and nitrosating stress”. The mortality [2] was “promoted the reducing mortality in rats”.
